Measurements published in patent publication US11524950B2, “Treatment of immune-related and inflammatory diseases” (Celgene Corporation, priority 2012, dated 2022).
Read-outs that look alike come from different tables or passages of the source.

Experiments:
MDC = experiment: LPS-stimulated hPBMC cytokine production: MDC; type: cell-based; details: Homo sapiens; LPS 1 ng/ml, 18 hours
Protocol: (§1) 50 ml human buffy coat was aliquoted 25 ml each into two 50 ml conical tubes and 25 ml sterile HBSS was added to each conical tube. The tubes were gently mixed by inverting. Fifteen ml of room temperature Ficoll-Paque Plus (GE Healthcare (location); cat #17-1440-02) was aliquoted into four 50 ml conical tubes. Then 25 ml of the Buffy coat/HBSS mixture was layered gently and slowly on top of the Ficoll. The samples were centrifuged at 450 rpm for 35 minutes. The top layered containing plasma was pipetted off and discarded. The interface containing mononuclear cells was transferred into two 50 ml conical tubes. Both conical tubes were filled to total volume of 50 ml with HBSS and centrifuged at 1200 rpm for 10 minutes. The cells were washed again in HBSS and spun at 1000 rpm for 10 minutes. Cell pellet was resuspended with 20 ml RPMI complete medium (RPMI/5% human sera/1× pen/strep/glut) and counted.
(§2) One hundred μl (2×10^6/ml) of hPBMCs were added to each well of a 96 well flat-bottom plate (final cell count=2×10^5/well) and incubated at 37° C. for 1 hour. […] compound was added to each test well and twenty μl medium containing 2.5% DMSO was added to each control well ([DMSO]final=0.25%) and plate was incubated for 1 hour at 37° C. Cells were then stimulated with […] 2.5 ng/ml LPS ([LPS]final=1 ng/ml) and incubated for 18 hours at 37° C.
(§3) 50 μl supernatant from each well was transferred into 3 new round-bottomed 96 well plates and stored at −20° C. for Luminex analysis. Duplicate wells were performed for each sample.
(§4) Supernatant samples were analyzed for cytokines in multiplex format according to the manufacturer's instructions (Millipore, Billerica, Ma 01821) using a Luminex IS100 instrument. IL-12 and GM-CSF analyses were done in a two-plex format using neat supernatants while all other cytokines were done in a multiplex format using supernatants diluted 1:20. Data analysis was performed using Upstate Beadview software. […] The IC50 were performed using GraphPad Prism v5.00. […]

NK cell IFN-γ production = experiment: NK IgG-induced interferon-gamma (IFN-gamma) assay; type: cell-based; details: Homo sapiens, 48 h
Protocol: NK cells from healthy donors were isolated from buffy coat blood by negative selection using the RosetteSep NK cell enrichment cocktail (Stem Cell Technologies, Vancouver, BC) prior to Ficoll-Hypaque (Fisher Scientific Co LLC, PA) density gradient centrifugation following the manufacturers' instructions. CD56+NK cells were isolated to ˜85% purity, as determined by flow cytometry (BD Biosciences, CA).
Ninety-six-well flat-bottom plates were coated with 100 μg/mL of human IgG (Sigma) overnight at 4° C. The next day, unbound IgG was washed away with cold 1×PBS. NK cells were then plated in the IgG-coated 96-well plates at 2×10^5 cells per well in 180 μL RPMI-1640 Media and 10 ng/mL of rhIL-2 (R & D Systems, MN) was added. Test compounds were added in a volume of […]. Final concentrations of test compounds were 0.0001, 0.001, 0.01, 0.1, 1, or 10 μM. Final DMSO concentrations were 0.25%. After 48 hours, the supernatants were harvested and analyzed by ELISA for IFN-γ production.
Data used to determine the ability of test compounds to enhance NK cell IFN-γ production in response to immobilized IgG and rhIL-2 stimulation was analyzed for each donor using GraphPad Prism v5.0 software.

IL-8 = experiment: LPS-stimulated hPBMC cytokine production: IL-8; type: cell-based; details: Homo sapiens; LPS 1 ng/ml, 18 hours
Protocol: as §1, §2, §3, §4

[1] = system: Human umbilical vascular endothelial cells; experiment: Human umbilical vascular endothelial cells proliferation assay; type: cell-based; details: for IC50: Homo sapiens, Endothelial cell
Protocol: Human Umbilical Vascular Endothelial Cells Proliferation Assay: Human umbilical vascular endothelial cells were thawed and grown in EGM2 medium until passage 3 to 6 for all proliferation assays. Human umbilical vascular endothelial cells were trypsinized, washed with 20% FBS/M199 medium and plated with the same medium at 10^4 cells/100 μL per well to 96-well cell culture plates. The plates were incubated overnight at 37° C. to allow cells to adhere. The cells were then starved in 1% FBS/M199 medium for 18 hours after washing with the same medium 3 times. For optimization of the concentration of the growth factors in the HUVEC proliferation assay, 100 μL/well of the 2× serial diluted growth factors, starting at 100 ng/mL, were added to HUVECs in duplicate for 72 hours at 37° C. in a humidified cell culture incubator with 5% CO2. For analysis of test compounds, a serial dilution of the test compounds in 0.4% DMSO/1% FBS/M199 medium in duplicate was made from the 10 mM stock. Fifty microliters per well of the serially diluted test compounds (10, 1.0, 0.1, 0.01, 0.001, 0.0001, 0.00001 μM) were added to the cells for 1 to 2 hours at 37° C. The final DMSO concentration in the cells is 0.1%. Then 50 μL of 4× final concentration of relative growth factors was added to each well in duplicate for 72 hours at 37° C. in a humidified cell culture incubator with 5% CO2. Thymidine incorporation was measured by adding one microcurie of 3H-thymidine (Amersham) in 20 μL medium to each well and incubated at 37° C. in a humidified cell culture incubator with 5% CO2 for 5 to 6 hours. The cells were then trypsinized and harvested onto UniFilter GF/C filter plates (Perkin Elmer) by using the cell harvester (Tomtec). After the plates were air dried, 20 µL/well of Microscint 20 (Packard) was added then the plates were analyzed in TopCount NXT (Packard). Each well was counted for one minute. The experiments were performed in duplicate in each of 3 donors.
The percentage inhibition of cell proliferation, tube formation, migration, and invasion was calculated by subtracting the result for unstimulated DMSO control from test sample results, averaging all replicates, and normalizing to the growth factor-stimulated DMSO control (0% inhibition). The IC50 values were calculated by using GraphPad Prism 5.0.

IL-1β = experiment: LPS-stimulated hPBMC cytokine production: IL-1β; type: cell-based; details: Homo sapiens; LPS 1 ng/ml, 18 hours
Protocol: as §1, §2, §3, §4

RANTES = experiment: LPS-stimulated hPBMC cytokine production: RANTES enhancement; type: cell-based, human; details: at 0.1 μM
Protocol: as §1, §2, §3, §4

[2] = read-out: bFGF (10 ng/mL) IC50 Values (μM), bFGF-induced proliferation
[3] = HGF-induced proliferation, read-out: HGF (25 ng/mL) IC50 Values
[4] = VEGF-induced proliferation, read-out: VEGF (25 ng/mL) IC50 Values

Row | Compound | IC50 (MDC) [µM] | EC50 (NK cell IFN-γ production) [µM] | IC50 (IL-8) [µM] | VEGF-, bFGF-, or HGF-induced HUVEC proliferation [1] | IC50 [1, 2] [µM] | IC50 [1, 3] [µM] | IC50 [1, 4] [µM] | concentrations with significant enhancement of proliferation ([1]; bFGF-treated HUVECs) [µM] | IC50 (IL-1β) [µM] | RANTES Mean % of Control (RANTES) | concentrations with significant enhancement of proliferation ([1]; VEGF-treated HUVECs) [µM]
1 | O=C1CCC(N2Cc3c(OCc4ccc(CN5CCOCC5)cc4)cccc3C2=O)C(=O)N1 (racemic) [Racemate, 3-[4-(4-morphlin-4-ylmethylbenzyloxy)-1-oxo-1,3-dihydro-isoindo-2-yl]piperidine-2,6-dione] | 0.0026 | 0.037 | > 10 | did not inhibit | 99 | 24 | > 100 | 0.01 to 1 | 0.00085 | 153 % of control | –
2 | O=C1CC[C@H](N2Cc3c(OCc4ccc(CN5CCOCC5)cc4)cccc3C2=O)C(=O)N1 [Test compound, (S)-3-[4-(4-morphlin-4-ylmethylbenzyloxy)-1-oxo-1,3-dihydro-isoindo-2-yl]piperidine-2,6-dione] | 0.0021 | 0.012 | > 10 | did not inhibit | 52 | 51 | > 100 | – | 0.00046 | 153 % of control | 1 to 10
3 | O=C1CC[C@@H](N2Cc3c(OCc4ccc(CN5CCOCC5)cc4)cccc3C2=O)C(=O)N1 [R-enantiomer, (R)-3-[4-(4-morphlin-4-ylmethylbenzyloxy)-1-oxo-1,3-dihydro-isoindo-2-yl]piperidine-2,6-dione] | 0.012 | 0.016 | > 10 | did not inhibit | 76 | 38 | > 100 | – | 0.0062 | 151 % of control | –
